Data on 27 molecules can be found in PubChem BioAssay (NCI).

Assay in all cases: growth of human tumour cells (NCI), 48 h
Assay [1] concerns BT-549 breast.
Assay [2] concerns MCF7 breast.
Assay [3] relates to MDA-N.
The subject of assay [4] is SNB-78 CNS.
Assay [5] has as its system LXFL 529 NSCLC.
Assay [6] deals with XF 498 CNS.
Assay [7] deals with HOP-18 NSCLC.
The test system of assay [8] is KM20L2 colon.
Assay [9] concerns RXF-631 renal.

Several values for one entry are separate records, joined by “and”; a condition that tells them apart may be missing. Identical values can stand only once.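 Interpolation was linear, between the two tested concentrations surrounding the appropriate level; five concentrations were tested over 48 hours in 96-well plates. GI50 = concentration required for 50% inhibition of growth. TGI: total growth inhibition.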

As to `CCOC(=O)c1cc2cc([N+](=O)[O-])ccc2oc1=O`, the TGI in assay [1], in assay [2] and in assay [3] was over 100 µM throughout.

As to `COS(=O)CCOC(=O)c1ccccc1SSc1ccccc1C(=O)OCCS(=O)OC` (stereo not drawn), the TGI is over 100 µM in assay [4]; 47.2 µM in assay [5]; 62.8 µM in assay [6]; over 100 µM in assay [7]; over 100 µM in assay [8].

Consider `C=C1C(=O)C23C(CC(OC(C)=O)C1[C@@H]2OC(C)=O)C1(C)C(OC(C)=O)CCC(C)(C)C1C[C@@H]3OC(C)=O` (stereo partly drawn), for which the TGI in assay [4] came to 3.14 µM; in assay [5] it was 2.63 µM.

Regarding `CN(C)/C(=N/C(=O)Nc1ccccc1)SCc1ccccc1`, the TGI in [4], in assay [5], in assay [6] and in assay [7] was over 100 µM in each case.

Consider `COc1ccc2c3c([nH]c2c1)[C@H]1C[C@H]2[C@H](C[C@@H](O)[C@H](OC)[C@H]2C(=O)O)CN1CC3`, for which the TGI in assay [1], in [2] and in [3] was over 100 µM throughout.

For the molecule `O=C1CCCc2c(O)ccc(O)c21`, the TGI in assay [4], in [5], in assay [7] and in assay [8] was over 100 µM throughout.

In the case of `CC(C)c1cc2c(O)c(c1)Cc1cc(C(C)C)cc(c1O)Cc1cc(C(C)C)cc(c1O)Cc1cc(C(C)C)cc(c1O)Cc1cc(C(C)C)cc(c1O)Cc1cc(C(C)C)cc(c1O)C2`, the TGI in assay [4], in assay [5], in assay [6] and in assay [8] was over 100 µM each time.

Regarding `O=[N+]([O-])C(=C(c1ccccc1)c1ccccc1)[N+](=O)[O-]`, the TGI in assay [5] is 29.2 µM; in [8] it was 32.1 µM.

With `O=C(O)c1oc2ccc([N+](=O)[O-])c3c2c1CCC3`, the TGI in assay [4], in assay [5], in [6], in assay [7] and in assay [8] was over 100 µM in each case.

`Cc1ccc(S(=O)(=O)ON=C2CC(c3ccccc3)N(C)C(c3ccccc3)C2)cc1` (stereo not drawn): the TGI is 64.7 µM and 52.8 µM in assay [4]; 33.3 µM and 40.3 µM in assay [5]; 53.6 µM and 45.9 µM in [8].

Take `CCCC/C(C)=N/NC(N)=S`: the TGI in assay [4], in assay [5], in assay [7] and in assay [8] was over 100 µM throughout.

As for `c1ccc(CN(Cc2ccccn2)Cn2cccn2)nc1`, the TGI in assay [4], in assay [9], in assay [6] and in assay [8] was over 100 µM in each case.

As for `COc1ccccc1OCC(COC(=O)Nc1ccc(C)cc1)OC(=O)Nc1ccc(C)cc1` (stereo not drawn), the TGI in assay [4] was 91.6 µM; in [5] it was over 100 µM; in assay [9], 47.2 µM; in assay [7] it was 40.3 µM; in assay [8], 50 µM.

Take `CC(=O)Nc1[nH]c(=O)[nH]c(=O)c1N(C(C)=O)C(C)=O`: the TGI in [4], in assay [5], in [6] and in [8] was over 100 µM each time.

Turning to `Clc1ccc(CCN2CCOCC2)c(Cl)c1`, the TGI in [4], in [9], in [6], in assay [7] and in assay [8] was over 100 µM throughout.

`CC1=C[C@H]2C[C@@]3(C)O[C@@H]([C@]4(C)CC[C@H]([C@@H](C)C(=O)O)OO4)CC3C(C)(C)[C@H]2CC1` (stereo partly drawn): the TGI turned out to be 2.78 µM in assay [4], 1.9 µM in assay [5], 0.234 µM in [6] and 3.91 µM in assay [8].

On to `C[C@H]1CC(=O)[C@@]2(O)C#C/C=C\C#C[C@@H]3Nc4c(cc(O)c5c4C(=O)c4ccccc4C5=O)[C@]24O[C@]314`, for which, in [2], the GI50 was 0.0025 µM; the TGI is 0.247 µM and 0.895 µM. In addition, the TGI in [3] worked out at 0.26 µM.

Take `O=C(O)C1C2CC3CC2CC31` (stereo not drawn): the TGI in assay [4], in [5], in [9] and in assay [6] was over 100 µM in each case.

For `Clc1cccc(C2SCc3nc4ccccc4n32)c1Cl` (stereo not drawn), the TGI in assay [4] was 55.6 µM; in [5] it was 30.3 µM; in [6], 29.9 µM; in assay [7], 33.1 µM; in [8], 34.7 µM.

`C1CCN2CC34CC(CC5CCCN(C6CCCC3N6)C54)C2C1` (stereo not drawn): the TGI in assay [1], in assay [2] and in assay [3] was over 100 µM throughout.

Consider `Cc1cc(C(=O)NCCN(C)C)c2nc3ccccc3nc2c1`, for which the TGI in assay [4] was 47.2 µM; in assay [5] it was over 46.3 µM; in [7], over 88.8 µM; in assay [8] it was 15.1 µM.

For the molecule `Cc1cc(Br)cc(C)c1NC(=O)C(=O)C(C(=O)c1ccc(Cl)c(Cl)c1)C1OC(=O)c2ccccc21` (stereo not drawn), the TGI in [4], in assay [5], in assay [9] and in assay [8] was over 100 µM each time.

Regarding `OCC(O)C(OC1OC(CO)C(O)C(O)C1O)c1nn(-c2ccc(F)cc2)c2nc3cc(Cl)c(Cl)cc3cc12` (stereo not drawn), the TGI in assay [4], in assay [5], in assay [6] and in [8] was over 100 µM in each case.

With `CC(C)=CCC[C@](C)(O)[C@H]1CC[C@]2(C)[C@@H]1CC[C@@H]1[C@@]3(C)CC[C@H](OC(=O)CCC(=O)O)C(C)(C)[C@@H]3CC[C@]12C`, the GI50 in assay [1] is over 100 µM; in assay [2] it was 29.3 µM. In addition, the TGI in [1] and in [2] was over 100 µM each time.

For `CC(C)(C)c1ccc(C(O)(c2ccc(C(C)(C)C)cc2)c2ccc(C(C)(C)C)cc2)cc1`, the TGI in [1], in assay [2] and in assay [3] was over 100 µM throughout.

Regarding `COc1cc(C=NCC(=O)CSC(c2ccccc2)c2ccccc2)cc(OC)c1OC`, in assay [1], the GI50 is 26.5 µM and the TGI was 93.9 µM. In addition, in assay [2], the GI50 was 19.8 µM and the TGI was over 100 µM.

For `Cc1cc(I)cc(CN(C)CCCCN2CCCC2)c1O`, in assay [1], the GI50 was 13.6 µM and the TGI came out at 33.5 µM. Moreover, in assay [2], the GI50 is 16.9 µM and the TGI came to 36.8 µM.
